What was measured:
[1] = target: T1, Recombinant human IDE (Homo sapiens, UniProt P14735); experiment: Fluorescence polarization; assay type: biochemical
T1 sequence (P14735 1-1019): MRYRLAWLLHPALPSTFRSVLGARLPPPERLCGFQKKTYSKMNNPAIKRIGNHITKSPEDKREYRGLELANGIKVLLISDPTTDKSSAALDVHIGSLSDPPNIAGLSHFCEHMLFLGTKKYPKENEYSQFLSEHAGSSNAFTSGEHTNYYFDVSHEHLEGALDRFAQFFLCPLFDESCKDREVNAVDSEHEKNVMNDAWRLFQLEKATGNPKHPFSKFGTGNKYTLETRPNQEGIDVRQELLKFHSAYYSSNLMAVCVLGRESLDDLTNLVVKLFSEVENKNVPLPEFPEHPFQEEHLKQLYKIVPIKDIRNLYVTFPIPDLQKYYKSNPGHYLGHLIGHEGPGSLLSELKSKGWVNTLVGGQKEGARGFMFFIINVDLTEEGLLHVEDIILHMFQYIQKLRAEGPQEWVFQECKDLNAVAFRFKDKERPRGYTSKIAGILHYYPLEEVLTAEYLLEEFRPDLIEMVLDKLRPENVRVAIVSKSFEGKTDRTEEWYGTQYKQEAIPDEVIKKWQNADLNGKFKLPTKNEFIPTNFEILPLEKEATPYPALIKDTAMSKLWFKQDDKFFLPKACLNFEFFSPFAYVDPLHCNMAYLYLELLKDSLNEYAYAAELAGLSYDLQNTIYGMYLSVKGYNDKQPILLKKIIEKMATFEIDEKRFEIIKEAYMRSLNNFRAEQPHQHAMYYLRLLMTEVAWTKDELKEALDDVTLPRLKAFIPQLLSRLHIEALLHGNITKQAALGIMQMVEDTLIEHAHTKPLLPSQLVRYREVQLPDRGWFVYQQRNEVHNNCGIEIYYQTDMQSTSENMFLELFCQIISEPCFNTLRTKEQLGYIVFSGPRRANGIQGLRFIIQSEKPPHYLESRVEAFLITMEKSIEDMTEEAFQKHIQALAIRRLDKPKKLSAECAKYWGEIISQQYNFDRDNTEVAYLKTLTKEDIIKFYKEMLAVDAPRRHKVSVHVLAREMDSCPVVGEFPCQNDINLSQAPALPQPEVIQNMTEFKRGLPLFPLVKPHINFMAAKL

[2] = test system: semi-purified protease purified from rat liver, inferred to be IDE; conditions: protease purified by affinity chromatography from rat liver; cited from earlier work
[3] = test system: purified recombinant IDE; conditions: same form of purified recombinant IDE; cited from earlier work
[4] = ML345 50 nM, FP-based assay, mean ± SD of 3 independent runs

## O=c1c2cc(F)ccc2sn1-c1cc(S(=O)(=O)N2CCOCC2)ccc1N1CCOCC1 [ML345]
[1]; [4]
  KM^app of FBG degradation in presence of inhibitor: 0.392 ± 0.073 µM
  vmax^app of FBG degradation in presence of inhibitor: 0.827 ± 0.032 nM/s
[1]; kinetics analyses, Lineweaver-Burk plots, P12–3A 5 µM or ML345 50 nM
  mechanism of inhibition of IDE: irreversible

## bacitracin
[2]
  inhibition of the purified protease: susceptible to inhibition

## insulin
[3]
  kcat of degradation by IDE: 0.025 s⁻¹
